This is an account of results in patent US20230043863A1, “HETEROAROMATIC DERIVATIVES FOR USE AS REGULATOR, PREPARATION METHOD THEREFOR AND USE THEREOF” (JIANGSU HANSOH PHARMACEUTICAL GROUP CO., LTD., priority 2018, published 2023).

Data set [1] concerns the target JAK1 (Homo sapiens, UniProt P23458). Nature of the data set: JAK kinase activity inhibition, TR-FRET (JAK1). Conditions: TR-FRET kinase assay. In kind it is biochemical. In outline: (§1)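 Steps: compound dilutions added; JAK kinase (0.1-20 nM) in HEPES/MgCl2 buffer added; peptide substrate and ATP mix started the reaction, 0.5-5 h at room temperature; EDTA and labeled antibody added, 1-24 h further. IC50 derived from 620/665 nm signals by four-parameter nonlinear fitting.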
A general note: In TR-FRET formats the signal depends on donor and acceptor labels being close together.

The target in data set [2] is TYK2 (Homo sapiens, UniProt P29597). Nature of the data set: JAK kinase activity inhibition, TR-FRET (TYK2). The class given is biochemical. Conditions: TR-FRET kinase assay. In outline:
as §1

Data set [3] deals with JAK2 (Homo sapiens, UniProt O60674). Briefly: JAK kinase activity inhibition, TR-FRET (JAK2). In kind it is biochemical. Conditions: TR-FRET kinase assay. How it is done:
(§2) Experimental objective: The objective of this test is to test the inhibitory effect of the compound on JAK kinase activity.
(§3) Experimental method: the fluorescence resonance energy transfer (TR-FRET) method was used to test the inhibitory effect of the compound on JAK kinase activity, and the half inhibitory concentration IC50 of the compound on JAK kinase activity was obtained.
(§4) Kinase reaction was carried out in a white 384-well plate (PerkinElmer). 1-5 μL of different concentrations of the compound diluted with DMSO and ddH2O was added into each well, and 1-5 μL of the corresponding solvent was added to the positive control wells, followed by addition of 0.1-20 nM JAK kinase solution diluted with 1-5 μL of kinase buffer (HEPES 50-250 mM, MgCl2 5-20 mM, etc.) was added to each well. 1-5 μL of kinase buffer was added to the negative control well. 1-5 μL of substrate mixture containing peptide substrate and ATP was added. The plate was incubated at room temperature for 0.5-5 hours. […], EDTA and detection solution containing labeled antibody was added, and then the plate was incubated at room temperature for another 1-24 hours. The fluorescence signal value at about 620 nm and 665 nm of each well was measured by BioTek Synergy H1 plate reader, and the inhibition rate was calculated by the fluorescence signal value. According to the inhibition rate of different concentrations, the IC50 of the compound was obtained by curve fitting.
(§5) The percentage inhibition data of the wells treated with the compound was calculated with the positive control wells (DMSO control wells) and negative control wells (no kinase added) on the plate {% inhibition rate=100-[(test compound value-negative control value)]/(Positive control value-negative control value)×100}. IC50 value was calculated by using GraphPad prism to fit the data of different concentrations and corresponding percentage inhibition rates to a 4-parameter non-linear logic formula.

Data set [4] has as its target T1, JAK3 (Homo sapiens, UniProt P52333).
T1 sequence (P52333 1-1124): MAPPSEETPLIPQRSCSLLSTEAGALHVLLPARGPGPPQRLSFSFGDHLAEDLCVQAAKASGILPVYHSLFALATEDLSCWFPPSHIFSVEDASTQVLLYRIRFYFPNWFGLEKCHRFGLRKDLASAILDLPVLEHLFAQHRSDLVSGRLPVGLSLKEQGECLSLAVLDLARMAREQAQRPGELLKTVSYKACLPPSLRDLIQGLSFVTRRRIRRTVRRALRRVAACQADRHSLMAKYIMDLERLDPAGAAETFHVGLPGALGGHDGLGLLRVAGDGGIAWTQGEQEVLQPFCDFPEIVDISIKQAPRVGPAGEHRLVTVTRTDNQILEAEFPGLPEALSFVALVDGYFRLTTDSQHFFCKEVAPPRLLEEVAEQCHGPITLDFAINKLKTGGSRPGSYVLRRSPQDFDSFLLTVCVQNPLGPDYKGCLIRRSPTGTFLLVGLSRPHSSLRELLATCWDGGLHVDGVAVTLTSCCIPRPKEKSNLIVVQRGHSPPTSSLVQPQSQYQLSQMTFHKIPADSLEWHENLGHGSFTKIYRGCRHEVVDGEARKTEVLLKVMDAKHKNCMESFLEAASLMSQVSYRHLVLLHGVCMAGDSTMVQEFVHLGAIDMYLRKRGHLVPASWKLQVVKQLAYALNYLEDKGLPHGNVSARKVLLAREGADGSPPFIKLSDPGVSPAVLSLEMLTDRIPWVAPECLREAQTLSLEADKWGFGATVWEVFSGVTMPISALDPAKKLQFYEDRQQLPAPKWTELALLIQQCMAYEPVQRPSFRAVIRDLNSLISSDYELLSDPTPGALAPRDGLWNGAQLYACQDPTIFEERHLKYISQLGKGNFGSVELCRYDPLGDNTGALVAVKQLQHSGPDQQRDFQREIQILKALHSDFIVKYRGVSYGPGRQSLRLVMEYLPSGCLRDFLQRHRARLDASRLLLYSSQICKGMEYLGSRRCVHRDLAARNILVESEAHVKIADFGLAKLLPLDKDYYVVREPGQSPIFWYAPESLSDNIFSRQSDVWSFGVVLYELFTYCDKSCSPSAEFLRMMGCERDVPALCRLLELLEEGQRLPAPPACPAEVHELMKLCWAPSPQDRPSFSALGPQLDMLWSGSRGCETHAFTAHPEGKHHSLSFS
Briefly: JAK kinase activity inhibition, TR-FRET (JAK3). In kind it is biochemical. Conditions: TR-FRET kinase assay. How it is done: as §2, §3, §4, §5

The test system of data set [5] is JAK-STAT signal pathway of U266 cells. Nature of the data set: Inhibition of cellular JAK-STAT signal pathway (STAT3 phosphorylation) in U266 cells. In kind it is cell-based, human. Conditions: Homo sapiens, U-266, INF-a 1000 U/mL stimulation. In a few lines:
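U266 cells (100-300 K/well) preincubated 2 h at room temperature with serially diluted compound, then stimulated 15 min with IFN-α at 1000 U/mL final. After lysis, STAT3 phosphorylation read by LANCE Ultra TR-FRET (Eu antibody 0.5 nM, ULight antibody 5 nM, overnight) at 665 nm; IC50 from 4-parameter fit of inhibition versus DMSO and negative controls.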

Data set [6] is described as follows: Balb/C mouse pharmacokinetics (plasma, colon, ileum). In kind it is in vivo. Conditions: male, po, Balb/C mice, p.o. 5 mg/kg; for Cmax: read-out: Blood concentration Cmax; for AUC(0-t): read-out: Curve area AUC0-t; for MRT: read-out: Mean detention time MRT; for Tmax: read-out: Time to peak tmax; for AUC(0-inf): read-out: Curve area AUC0-∞; for half-life: read-out: Half life period t1/2 (converted). The source says:
Balb/C mouse was used as the test animal, the pharmacokinetic behavior in mice (plasma and colon, ileum tissue) was studied after oral administering the embodiment 1, embodiment 60, embodiment 169, embodiment 170, embodiment 171, embodiment 179, embodiment 191, embodiment 213, embodiment 214, embodiment 237, embodiment 238, embodiment 244, embodiment 246, embodiment 247, embodiment 257, embodiment 260, embodiment 262, embodiment 263, embodiment 267, embodiment 277, embodiment 278, embodiment 279, embodiment 288, embodiment 295, embodiment 299 and embodiment 301 at a dose of 5 mg/kg. After analyzing the drug concentration in the colon and ileum, the ratio of the drug concentration in the colon to that in ileum, and the ratio of the drug concentration in the colon to that in the plasma, the compounds with excellent PK were selected for further research.
12 Balb/C mice in each group, male, Shanghai Jiesjie Experimental Animal Co., Ltd., animal production license number (SCXK (Shanghai) 2013-0006 N0.311620400001794).
12 Balb/C mice in each group, male; p.o. after one night fast; the dose was 5 mg/kg; the administration volume was 10 mL/kg.
At 0, 0.5, 1, 2, 3, 5 and 7 hours before and after the administration, the mice were executed by CO2 and 0.2 mL of blood was collected from the heart, placed in an EDTA-K2 test tube, and centrifuged at 6000 rpm at 4° C. for 6 minutes to separate the plasma, which was then stored at −80° C. The ileum was taken close to the cecum end with a length of about 4-5 cm, and the colon was also taken close to the cecum end with a length of about 2-3 cm, weighed and placed in a 2 mL centrifuge tube, then stored at −80° C.
1) 40 uL of plasma sample was precipitated by adding 160 uL of acetonitrile, mixed and centrifuged at 3500×g for 5-20 minutes.
2) 30 μL of plasma and intestinal homogenate sample were precipitated by adding 90 of acetonitrile containing internal standard (100 ng/mL), mixed and centrifuged at 13000 rpm for 8 minutes.
3) 70 μL of the supernatant solution after treatment was collected and 70 μL of water was added thereto, vortexed and mixed for 10 minutes, and then 20 μL was collected to analyze the concentration of the test compound by LC/MS/MS. LC/MS/MS analysis instrument: AB Sciex API 4000 Qtrap.
Liquid phase conditions: Shimadzu LC-20AD Pump
Chromatographic column: Agilent ZORBAX XDB-C18 (50×2.1 mm, 3.5 μm) mobile phase: 0.1% formic acid aqueous solution as A solution, acetonitrile as B solution
Elution time: 0-4.0 minutes, the eluent is as follows:
The main pharmacokinetic parameters were calculated with WinNonlin 6.1, and the results of mouse pharmacokinetic experiments are shown in Table 3:
NA refers to none detected or not being tested (the detection limit of blood concentration was 1 ng/mL, when the Cmax in the blood test is NA, then NA in the blood test index refers to none detected; when the Cmax in the blood test is higher than the quantitative limit 1 ng/mL, then NA in the blood test index refers to not being tested; NA in the tissues (colon and ileum) refers to not being tested).

Like-named read-outs stand apart in the source and are kept apart here.

Chain of TYK2 (P29597 whole entry): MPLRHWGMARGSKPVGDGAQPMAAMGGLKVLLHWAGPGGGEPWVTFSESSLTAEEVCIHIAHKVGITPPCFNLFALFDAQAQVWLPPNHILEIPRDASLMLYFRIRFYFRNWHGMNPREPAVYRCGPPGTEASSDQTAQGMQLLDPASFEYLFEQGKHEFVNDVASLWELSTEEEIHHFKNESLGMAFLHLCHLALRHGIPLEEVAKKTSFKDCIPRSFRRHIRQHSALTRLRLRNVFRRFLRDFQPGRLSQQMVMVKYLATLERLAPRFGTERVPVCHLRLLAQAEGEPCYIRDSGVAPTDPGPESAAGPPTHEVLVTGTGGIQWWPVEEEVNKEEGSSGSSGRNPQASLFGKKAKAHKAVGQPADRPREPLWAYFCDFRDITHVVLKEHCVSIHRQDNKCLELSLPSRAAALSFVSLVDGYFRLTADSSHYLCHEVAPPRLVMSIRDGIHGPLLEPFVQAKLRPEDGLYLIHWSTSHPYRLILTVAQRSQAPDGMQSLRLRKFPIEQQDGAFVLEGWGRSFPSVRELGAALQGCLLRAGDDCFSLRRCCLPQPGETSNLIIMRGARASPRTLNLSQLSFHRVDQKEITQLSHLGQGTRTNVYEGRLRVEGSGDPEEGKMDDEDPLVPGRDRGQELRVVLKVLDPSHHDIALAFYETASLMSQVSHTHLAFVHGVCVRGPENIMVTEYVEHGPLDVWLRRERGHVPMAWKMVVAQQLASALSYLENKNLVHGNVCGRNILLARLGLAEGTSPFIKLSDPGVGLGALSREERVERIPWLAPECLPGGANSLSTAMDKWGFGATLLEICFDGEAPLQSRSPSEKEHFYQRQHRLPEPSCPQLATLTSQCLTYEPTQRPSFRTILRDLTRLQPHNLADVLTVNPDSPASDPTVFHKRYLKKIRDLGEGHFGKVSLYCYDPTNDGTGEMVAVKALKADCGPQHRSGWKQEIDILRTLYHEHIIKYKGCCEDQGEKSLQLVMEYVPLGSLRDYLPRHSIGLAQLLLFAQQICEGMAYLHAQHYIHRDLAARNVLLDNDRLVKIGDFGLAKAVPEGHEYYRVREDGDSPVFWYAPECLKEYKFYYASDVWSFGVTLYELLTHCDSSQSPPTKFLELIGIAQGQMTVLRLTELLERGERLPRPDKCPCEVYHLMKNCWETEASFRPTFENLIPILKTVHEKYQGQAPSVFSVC
Chain of JAK1 (P23458 whole entry): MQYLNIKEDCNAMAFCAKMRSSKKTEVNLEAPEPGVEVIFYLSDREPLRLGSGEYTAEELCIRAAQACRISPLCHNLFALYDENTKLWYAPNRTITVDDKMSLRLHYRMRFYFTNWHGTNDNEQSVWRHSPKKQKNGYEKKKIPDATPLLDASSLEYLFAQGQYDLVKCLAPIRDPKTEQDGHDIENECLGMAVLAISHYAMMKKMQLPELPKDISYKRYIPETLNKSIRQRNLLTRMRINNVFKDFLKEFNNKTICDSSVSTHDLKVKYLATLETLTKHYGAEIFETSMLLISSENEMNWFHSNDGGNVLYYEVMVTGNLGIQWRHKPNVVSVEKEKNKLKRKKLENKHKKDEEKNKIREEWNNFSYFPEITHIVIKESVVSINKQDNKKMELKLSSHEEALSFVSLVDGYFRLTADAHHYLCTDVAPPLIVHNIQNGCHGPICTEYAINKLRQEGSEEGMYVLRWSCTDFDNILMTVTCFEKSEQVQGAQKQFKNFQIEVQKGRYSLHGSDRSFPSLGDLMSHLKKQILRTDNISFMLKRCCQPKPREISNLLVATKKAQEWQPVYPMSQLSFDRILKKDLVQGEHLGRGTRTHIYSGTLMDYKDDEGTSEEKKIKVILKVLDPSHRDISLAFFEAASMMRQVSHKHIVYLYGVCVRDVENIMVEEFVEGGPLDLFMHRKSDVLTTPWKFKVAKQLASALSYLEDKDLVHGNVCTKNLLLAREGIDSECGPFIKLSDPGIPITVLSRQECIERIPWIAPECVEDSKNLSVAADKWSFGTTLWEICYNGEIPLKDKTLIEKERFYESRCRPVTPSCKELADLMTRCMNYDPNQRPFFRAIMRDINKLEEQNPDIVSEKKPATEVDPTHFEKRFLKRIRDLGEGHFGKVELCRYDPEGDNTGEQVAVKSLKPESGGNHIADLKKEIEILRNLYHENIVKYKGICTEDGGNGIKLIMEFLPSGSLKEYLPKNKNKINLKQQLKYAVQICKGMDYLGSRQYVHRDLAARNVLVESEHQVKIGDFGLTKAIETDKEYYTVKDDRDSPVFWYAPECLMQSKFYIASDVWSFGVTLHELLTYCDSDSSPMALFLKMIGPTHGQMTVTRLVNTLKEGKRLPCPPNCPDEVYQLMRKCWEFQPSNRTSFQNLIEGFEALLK
Chain of JAK2 (O60674 whole entry): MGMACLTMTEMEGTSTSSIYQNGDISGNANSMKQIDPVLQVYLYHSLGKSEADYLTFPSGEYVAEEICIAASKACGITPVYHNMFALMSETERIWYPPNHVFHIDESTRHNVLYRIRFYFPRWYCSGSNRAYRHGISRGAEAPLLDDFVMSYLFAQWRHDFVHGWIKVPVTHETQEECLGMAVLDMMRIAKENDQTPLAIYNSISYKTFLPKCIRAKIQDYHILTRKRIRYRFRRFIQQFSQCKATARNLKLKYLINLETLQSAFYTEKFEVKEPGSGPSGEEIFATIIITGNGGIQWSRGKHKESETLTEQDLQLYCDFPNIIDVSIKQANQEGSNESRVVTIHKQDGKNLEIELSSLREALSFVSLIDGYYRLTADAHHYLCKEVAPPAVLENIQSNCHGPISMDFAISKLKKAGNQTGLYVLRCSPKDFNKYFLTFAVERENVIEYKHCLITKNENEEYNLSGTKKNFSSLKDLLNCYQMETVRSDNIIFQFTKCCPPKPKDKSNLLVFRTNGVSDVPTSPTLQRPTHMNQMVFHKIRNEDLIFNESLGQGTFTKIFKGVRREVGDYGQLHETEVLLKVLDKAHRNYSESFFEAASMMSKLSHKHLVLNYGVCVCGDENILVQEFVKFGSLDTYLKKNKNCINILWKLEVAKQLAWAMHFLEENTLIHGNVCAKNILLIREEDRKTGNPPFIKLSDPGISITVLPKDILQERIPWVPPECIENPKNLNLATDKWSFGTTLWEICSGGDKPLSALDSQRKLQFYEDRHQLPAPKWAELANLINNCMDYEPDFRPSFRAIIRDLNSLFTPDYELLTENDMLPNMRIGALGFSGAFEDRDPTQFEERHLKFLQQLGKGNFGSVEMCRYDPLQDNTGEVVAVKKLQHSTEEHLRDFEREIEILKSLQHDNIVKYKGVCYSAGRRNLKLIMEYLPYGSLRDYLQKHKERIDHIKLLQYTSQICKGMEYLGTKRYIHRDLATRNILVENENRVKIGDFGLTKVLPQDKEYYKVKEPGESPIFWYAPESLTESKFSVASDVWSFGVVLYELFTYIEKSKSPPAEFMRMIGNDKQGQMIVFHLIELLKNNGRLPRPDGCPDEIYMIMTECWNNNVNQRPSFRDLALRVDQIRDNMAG

What is called IC50 is the concentration needed to halve the response being measured. `Cc1cc(Nc2cc3ncccc3c(N3CC4CCC(C3)N4CCC#N)n2)n[nH]1` [Embodiment 109, 3-(3-(7-((5-methyl-1H-pyrazol-3-yl)amino)-1,6-diazanaphthalen-5-yl)-3,8-diazabicyclo[3.2.1]oct-8-yl)propionitrile]: the IC50 in data set [1] worked out at 7.85 nM; in data set [2], 33.9 nM; in data set [3], 6.27 nM; in data set [4], 25.9 nM.

For orientation: MRT means a mean duration of stay, worked out from the concentration-time curve. Broadly, the Tmax is the time from dosing to the highest level. On to `Cc1cc(Nc2nc(N[C@@H]3C[C@H]4CCC[C@@H](C3)N4C(=O)c3nccn3C)nc3sccc23)n[nH]1` [Embodiment 263, (1-methyl-1H-imidazol-2-yl) ((3-exo)-3-((4-((5-methyl-1H-pyrazol-3-yl)amino)thieno[2,3-d]pyrimidin-2-yl)amino)-9-azabicyclo[3.3.1]non-9-yl)methanone], for which the IC50 in data set [1] was 0.11 nM. In addition, the IC50 in data set [2] was 0.22 nM. Further, half-maximal inhibition in data set [5] (IC50) required 4.07 nM. Further, in data set [6] (plasma, blood), the Cmax came out at 12.7 ng/mL, the AUC(0-t) stood at 57.6 ng·h/mL, the MRT came out at 3.51 h and the Tmax is 3 h. Also, in data set [6] (colon), the Cmax came to 5540 ng/mL, the AUC(0-t) came out at 15500 ng·h/mL, the MRT amounted to 3.58 h and the Tmax amounted to 3 h. In addition, in data set [6] (ileum), the Cmax turned out to be 5490 ng/mL, the AUC(0-t) is 9910 ng·h/mL, the AUC(0-inf) amounted to 9940 ng·h/mL and the half-life was 0.82 h. In data set [6] (ileum), the MRT came to 1.36 h and the Tmax came to 1 h.

On to `Cc1cc(Nc2nc(N[C@@H]3C[C@H]4CC[C@@H](C3)N4C(=O)CN3CCOCC3)nc3sccc23)n[nH]1` [Embodiment 244, 1-((3-exo)-3-((4-((5-methyl-1H-pyrazol-3-yl)amino)thieno[2,3-d]pyrimidin-2-yl)amino)-8-azabicyclo[3.2.1]oct-8-yl)-2-morpholinoethane-1-one], for which, in data set [1], the IC50 was found to be 1.15 nM. In data set [2], the IC50 stood at 2.45 nM. Further, the IC50 in data set [5] turned out to be 3.79 nM. Besides, in data set [6] (plasma, blood), the Cmax was 12 ng/mL, the AUC(0-t) came to 18 ng·h/mL, the MRT came out at 2.12 h and the Tmax came out at 3 h. In data set [6] (colon), the Cmax turned out to be 1190 ng/mL, the AUC(0-t) was found to be 4900 ng·h/mL, the MRT amounted to 4.38 h and the Tmax came out at 7 h. Moreover, in data set [6] (ileum), the Cmax was 9010 ng/mL, the AUC(0-t) was 22600 ng·h/mL, the AUC(0-inf) is 22600 ng·h/mL and the half-life was 0.66 h. Further, in data set [6] (ileum), the MRT is 1.83 h and the Tmax was 1 h.

As to `Cc1cc(Nc2nc(N[C@@H]3C[C@H]4CCC[C@@H](C3)N4S(=O)(=O)c3ccccn3)nc3sccc23)n[nH]1` [Embodiment 267], the IC50 in data set [1] worked out at 0.13 nM. For the same compound, the IC50 in data set [2] came out at 0.39 nM. Further, the IC50 in data set [5] worked out at 18 nM. For the same compound, in data set [6] (colon), the Cmax is 1270 ng/mL, the AUC(0-t) amounted to 5610 ng·h/mL, the MRT amounted to 4.4 h and the Tmax worked out at 5 h. Also, in data set [6] (ileum), the Cmax turned out to be 12200 ng/mL, the AUC(0-t) amounted to 20700 ng·h/mL, the AUC(0-inf) came out at 20700 ng·h/mL and the half-life was 0.53 h. Besides, in data set [6] (ileum), the MRT is 1.24 h and the Tmax worked out at 1 h.
